The results in this text go back to the METLIN SMRT retention time set (Domingo-Almenara et al. 2019).

The data set is described as follows: gradient 5% acetonitrile 3 min, to 50% in 2 min, to 85% in 15 min, held 3 min, 100 µL/min. Particulars: column: Zorbax Extend-C18 2.1 x 50 mm; eluents: water / acetonitrile, 0.1% formic acid. Put shortly: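 Each retention time is based on an adduct peak selected computationally and verified by manual inspection. Measurements used HPLC–quadrupole time-of-flight mass spectrometry in positive and negative ionization mode on mixtures of ~100 pure standards. Chromatography ran on a Zorbax Extend-C18 column (2.1 × 50 mm, 1.8 μm) at 100 μL/min with water and acetonitrile, each containing 0.1% formic acid, and dead and dwell volumes of 40 μL and 900 μL.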
Compound `Cn1nc(-c2nc(Cc3ccccc3)no2)c2c1CCN(C(=O)NC(C)(C)C)C2` returned an RP-LC retention time of 889 s.
For the compound `Cc1nn(-c2ccccc2)c(C)c1S(=O)(=O)N1CCC(C(=O)NCCN2CCCCCC2)CC1`, the RP-LC retention time turned out to be 672 s.
For `CCS(=O)(=O)N1[C@H]2CC[C@@H]1c1cnc(-c3ccc(F)cc3)nc1C2`, the RP-LC retention time stood at 945 s.
The value for `O=C(Cn1c(CN2CCCCCC2)nc2ccccc21)N1CCCCC1` was 662 s.
`CCS(=O)(=O)Nc1ccc(C2(C(=O)NCC3CCCO3)CCCCC2)cc1` (stereo not given) came in with an RP-LC retention time of 781 s.
For the compound `CCN(CCN(C)C)C(=O)c1cc2c(s1)N(CC)CCCC2`, the RP-LC retention time worked out at 599 s.
Compound `COc1ccc(C(=O)N2C[C@H](c3nc(-c4ccccc4)no3)[C@@H](C)C2)cc1` had an RP-LC retention time of 984 s.
The value for `COCCN1CCn2cc(S(=O)(=O)Nc3ccccc3OC)cc2C1=O` was 679 s; that for `CCOC(=O)c1ccc(NC(=O)N2CCC(n3c(C(F)(F)F)nc4cccnc43)CC2)cc1` was 920 s; that for `O=C(c1ccco1)N1CCCC(c2nnc(-c3cccs3)o2)C1` (stereo not given) was 690 s.
Take `COc1cccc(CC(=O)N2C[C@@H]3C[C@H]2C[C@@H]3NS(=O)(=O)c2ccccc2)c1`: the RP-LC retention time came out at 764 s.
`COc1ccc(C(=O)N2CCC3(CC2)NC(=O)c2cc(Cl)ccc2N3C)cc1OC` had an RP-LC retention time of 742 s.
For the compound `CCCn1cc(CCNS(=O)(=O)c2cc(C)c(C)cc2C)c2cccnc21`, the RP-LC retention time was found to be 978 s.
In the case of `O=C(NC1CCCC1)c1nnc(-c2ccc(S(=O)(=O)N3CCOCC3)cc2)o1` it was 804 s; in that of `NC(=O)CCSc1nnc(SCC(=O)c2ccccc2)s1`, 675 s; in that of `Cc1cc(C(=O)N2CCCCC2)c2c(=O)n(CC(=O)Nc3cc(F)ccc3F)c(=O)n(C)c2n1`, 837 s.
The value for `CN(CCNC(=O)C1CCCN(c2ncnc3c2nc2n3CCCCC2)C1)C1CCCCC1` (stereo not given) was 612 s; that for `O=C(NCCOc1ccc2nnc(-c3cccc(F)c3)n2n1)c1ccc(=O)[nH]n1` was 598 s.
Consider `COc1ccc(C(C)NC(=O)COc2ccc(NC(=O)C3CC3)cn2)cc1OC` (stereo not given), for which the RP-LC retention time came out at 689 s.
The value for `O=C(Cc1nc(-c2ccccc2)n[nH]1)Nc1ccc(Cl)cc1` was 789 s; that for `CN1CCCc2cc(CCNC(=O)C(=O)NCCC3=CCCCC3)ccc21` was 842 s; that for `Cc1cccc(NC(=O)Cn2c(C)nc(C)c(C)c2=O)c1` was 658 s.
In the case of `Cc1ccc(-c2noc(-c3ccc(=O)n(Cc4ccc(Cl)cc4)c3)n2)cc1` it was 1230 s; in that of `COc1ccccc1NC(=O)N1CCCC1c1nc(-c2ccc(F)cc2F)no1` (stereo not given), 1000 s.
In the case of `CS(=O)(=O)N1CCC(C(=O)NCCc2csc(-c3cccs3)n2)CC1` it was 695 s; in that of `Cc1ccccc1CC(=O)N1C[C@H](c2nc(-c3ccccc3)no2)[C@@H](C)C1`, 1070 s.
On to `Cc1cccc(N2CCN(C(=O)c3cc(C)n4nccc4n3)CC2)c1`, for which the RP-LC retention time worked out at 829 s.
For `Cc1c(CC(=O)N2CCC(C(N)=O)CC2)c(=O)oc2c(C)c3occ(C(C)(C)C)c3cc12`, the RP-LC retention time was 821 s.
Compound `Cc1ccsc1C(=O)NC1(c2nc(-c3cnccn3)no2)CCCCC1` showed an RP-LC retention time of 806 s.
The compound `CN1C(=O)c2cccnc2Sc2cc(C(=O)N3CCc4ccccc43)ccc21` registered an RP-LC retention time of 789 s.
For the compound `CCn1nccc1C(=O)Nc1cnc(N2CCCCCC2)nc1`, the RP-LC retention time came to 834 s.
The value for `O=c1ccc(-c2ccc(F)cc2)nn1CCc1nc(-c2ccccc2Br)no1` was 1010 s; that for `CCc1nc2c(NC(=O)c3ccc(C)c(C)c3)cccn2n1` was 922 s; that for `CC(C)c1ccc(NC(=O)Cn2nc3c4sc(N(C)C)nc4ncn3c2=O)cc1` was 782 s.
As to `CCCCNC(=O)Cn1c(=O)c2cnc(-c3ccccc3)nc2n(CC)c1=O`, the RP-LC retention time was 937 s.
In the case of `Cc1ccc(C)c(NC(=O)CSc2ccc(N3CCCC(C(=O)NC4CC4)C3)nn2)c1` (stereo not given) it was 681 s; in that of `CCc1ccc(C2=C(C)C(N3CCCN(C(=O)C(C)(C)C)CC3)=NS2(=O)=O)cc1`, 901 s; in that of `COc1ccc(S(=O)(=O)N2CCCC(C(N)=O)C2)cc1OC` (stereo not given), 640 s.
Turning to `Cc1cc(C)cc(NC(=O)N2CCC(CN3CCCC(C)C3)CC2)c1` (stereo not given), the RP-LC retention time worked out at 648 s.
In the case of `CC(=O)Nc1nc(-c2ccc(F)c(F)c2)cs1`, the RP-LC retention time is 766 s.
The value for `O=C(Nc1nnc(C2CC(=O)N(c3ccccc3)C2)o1)c1ccc(F)cc1` (stereo not given) was 708 s; that for `COc1ccc(CNC(=O)NCCC(O)C(C)(C)C)cc1` (stereo not given) was 678 s; that for `CCc1nn(C)c(=O)c2cc(S(=O)(=O)NCc3ccc(F)cc3Cl)cn12` was 916 s.
On to `Cc1ccc(C)c(NC(=O)N2CCC(n3cnc4ccc(Cl)cc4c3=O)CC2)c1`, for which the RP-LC retention time turned out to be 929 s.
Regarding `Clc1ccc(-c2nc(NCc3cccnc3)c3ccccc3n2)cc1`, the RP-LC retention time was 601 s.
In turn, `CCOc1ccccc1NS(=O)(=O)c1cc(-c2nc(C(C)(C)C)cs2)cs1` returned an RP-LC retention time of 1310 s.
In the case of `CC(C)c1noc(-c2cc(=O)n(CC(=O)Nc3ccccc3F)c3ccccc23)n1` it was 984 s; in that of `CC(C)S(=O)(=O)c1ccc(C(=O)N2CC(=O)Nc3ccccc32)cc1`, 653 s; in that of `Cc1cccc(N2CCN(C(=O)CN3C(=O)CN(C)C(=O)c4ccccc43)CC2)c1C`, 812 s.
In the case of `O=C(N[C@@H]1CN(Cc2ccccn2)C[C@H]1CO)C1(c2ccccc2)CC1` it was 608 s; in that of `O=C(CCN1C(=O)c2cccnc2Sc2ccccc21)NCCc1c[nH]c2ccccc12`, 746 s; in that of `Cc1cccc(NC(=O)N2CCN(c3nc4ccccc4nc3C(F)(F)F)CC2)c1`, 1120 s.
The value for `Nc1ncnc2c1ncn2C1CCCO1` (stereo not given) was 580 s; that for `COCCCNC(=O)C1CCCN(c2ncnc3c2nc2n3CCCCC2)C1` (stereo not given) was 625 s; that for `Cc1cc(C)cc(NC(=O)c2csc(-c3cn(C)c4ncccc34)n2)c1` was 1050 s.
Compound `COC(=O)c1cn(Cc2cc(C)ccc2C)nc1S(=O)(=O)N(C)c1ccc(C)cc1` had an RP-LC retention time of 1060 s.
Turning to `COc1ccc(S(=O)(=O)NCc2cccnc2-c2ccc(C)cc2)cc1Cl`, the RP-LC retention time was 743 s.
In turn, `Cc1cc(N2CCN(C(=O)Nc3ccccc3C)CC2)nc(N2CCCC2)n1` had an RP-LC retention time of 651 s.
In the case of `Cc1nc(-c2ccc(-c3noc(C(C)Oc4ccccc4)n3)cc2)cs1` (stereo not given) it was 1210 s; in that of `CC(C)c1noc(CC2CCN(C(=O)c3ccsc3)CC2)n1`, 819 s.
Compound `CC(C)(C)c1ccc(-c2noc(Cn3c(=O)n(-c4ccc(Cl)cc4)c(=O)c4sccc43)n2)cc1` had an RP-LC retention time of 1280 s.
Compound `O=C(c1ccccc1)N1CCC(CCNS(=O)(=O)Cc2ccccc2)CC1` displayed an RP-LC retention time of 803 s.
In turn, `C=CCN(CC=C)c1nc(-c2ccc(Cl)cc2)nc2ccccc12` returned an RP-LC retention time of 936 s.
`COc1ccc(Br)cc1CNC(=O)CN1C(=O)CSc2ncccc21` returned an RP-LC retention time of 756 s.
Compound `O=C(CN1CCN(Cc2cccc(Cl)c2)C1=O)NCc1ccc(N2CCCC2)cc1` showed an RP-LC retention time of 854 s.
In the case of `COc1ccc(C2CC(=O)N(c3ccc(F)cc3F)C(=O)C2)cc1` it was 931 s; in that of `O=C(Nc1ccc2c(c1)OCCO2)C1CCCN(S(=O)(=O)Cc2ccccc2Cl)C1` (stereo not given), 968 s.
In the case of `CCCNC(=O)Cc1c(C)nn(-c2nc(-c3ccc(C)cc3)cs2)c1C`, the RP-LC retention time was 1070 s.
In the case of `Cc1cc(C)n2ncc(-c3ccc(C)c(S(=O)(=O)NCc4ccc(F)cc4Cl)c3)c2n1` it was 1080 s; in that of `Cc1ccc(C)c(Cn2nc3ccc(S(=O)(=O)N4CCCC4)cn3c2=O)c1`, 915 s.
In the case of `Cc1nc(-c2noc(-c3ccc(F)cc3)n2)cn1CC(=O)Nc1cccc(Cl)c1` it was 918 s; in that of `COc1ccc(-c2nc3cccnc3n2C2CCN(C(=O)NC3CCCC3)C2)cc1` (stereo not given), 879 s.
The value for `Cc1cc2nn(CC(=O)Nc3cccc(F)c3)c(=O)n2c(Nc2ccc(F)cc2)n1` was 981 s.
Compound `Cc1ccc(Sc2nccnc2N2CCC(C(=O)NCc3ccccc3C)CC2)cc1` yielded an RP-LC retention time of 1150 s.
The value for `COC(=O)C(C)NC(=O)N1CCC2(CC1)NC(=O)c1ccccc1O2` (stereo not given) was 621 s.
Compound `O=C(NCCOc1ccc(F)cc1)C1CN(C(=O)c2cccs2)C1` came in with an RP-LC retention time of 691 s.
As to `CCn1cc(-c2nc(C)c(C(=O)Nc3ccccc3F)s2)c2cccnc21`, the RP-LC retention time is 1000 s.
Regarding `Fc1cccc(-c2nc(-c3ccc(-n4cccn4)nc3)no2)c1`, the RP-LC retention time came out at 1220 s.
Compound `Cc1ccc2c(c1)N(S(C)(=O)=O)CCC(C(=O)Nc1cccc(Cl)c1)O2` (stereo not given) yielded an RP-LC retention time of 1020 s.
`Cc1ccc(CN2CCCC(c3nncn3Cc3ccccc3)C2)o1` (stereo not given) displayed an RP-LC retention time of 745 s.
